PubChem BioAssay (NCI)
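Test compounds were applied to cells in 96-well plates for 48 hours at 5 doses. TGI: concentration producing complete growth inhibition.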

Key:
Test in all cases: DTP human tumour cell line panel, 48 h
[1] = system: COLO 205 colon
[2] = system: HS 578T breast
[3] = system: OVCAR-4 ovarian
[4] = system: RXF 393 renal
[5] = system: SK-MEL-28 melanoma
[6] = system: SN12C renal
[7] = system: U251 CNS
[8] = system: UACC-257 melanoma
[9] = system: UO-31 renal
[10] = system: TK-10 renal

Compound	TGI [1] [µM]	TGI [2] [µM]	TGI [3] [µM]	TGI [4] [µM]	TGI [5] [µM]	TGI [6] [µM]	TGI [7] [µM]	TGI [8] [µM]	TGI [9] [µM]	TGI [10] [µM]
O=c1[nH]nc(-c2ccccc2)n1/N=C/c1cccs1	35.8	> 100	62	85.2	> 100	> 100	> 100	> 100	> 100	
O=[N+]([O-])C(=C(N1CCOCC1)N1CCOCC1)/C(Cl)=C(\Cl)Br	29.6	> 100	39.5		33.8	31.7	39.9	31.8	43.4	
CN(/N=C/c1cccc2cccnc12)c1ccc(Cl)cc1[N+](=O)[O-]	> 100	> 100	> 100	> 100		> 100	> 100	> 100	> 100	> 100
CC1=C(c2ccccc2)NC(=S)C(C)C(c2ccccc2)=N1 (stereo not drawn)	> 100		> 100	61.6	> 100	> 100	> 100	> 100	> 100	> 100
CCCCCCCCCCCCCCCCCCNC(=S)/N=C\C1=C(O)c2ccccc2C1=O	29.1	35			30.7	31.1	18.3	33.6	23.3	30.6
N#Cc1c(N2CCC(O)C2)c2ccccc2n2c1nc1ccccc12 (stereo not drawn)	> 100	> 100	> 100		> 100	> 100		> 100	> 100	> 100
CC(=O)OCC1OC(Nn2c(=O)[nH]c3ccccc3c2=O)C(OC(C)=O)C(OC(C)=O)C1OC(C)=O (stereo not drawn)	> 100	> 100		> 100	> 100	> 100	> 100	> 100	> 100	
COc1cc(C2c3cc4c(cc3OC(NNS(=O)(=O)c3ccc(C)cc3)C2C)OCO4)cc(OC)c1O (stereo not drawn)	43.5	55.3	40.1	54	> 100	> 100	27.8	38.4		39.9
N#CC(=N)c1ncn(-c2ccc(N)cc2)c1N	> 100	> 100	> 100		> 100	> 100	> 100	> 100	> 100	> 100
CC(=O)Nc1ccc2c3c(cc(O)c2c1)N(C(=O)CCCCCCC(=O)N1CC(CCl)c2c1cc(O)c1cc(NC(C)=O)ccc21)CC3CCl (stereo not drawn)	0.0161		> 100	0.0185	> 100	0.237				0.0702
O=C(Nc1ccc2[nH]c(C(=O)N3CC(CCl)c4c3cc([N+](=O)[O-])c3ccccc43)cc2c1)Nc1ccc2[nH]c(C(=O)N3CC(CCl)c4c3cc([N+](=O)[O-])c3ccccc43)cc2c1 (stereo not drawn)	> 100		> 100		> 100	> 100	> 100	> 100	41.1	> 100
COC1C(O)C(n2ncc3c(SC)nc(SC)nc32)OC1C(O)CO (stereo not drawn)	> 100		> 100	> 100	> 100	> 100	> 100	> 55.8	> 100	
CC1=C(O)C(=O)C2C(=O)C1C1Cc3ccccc3C21 (stereo not drawn)	> 100		> 100	> 100	> 100		> 100		> 100	> 100
CCOc1ccc(N/C(=C(/C(Cl)=C(/Cl)N2CCCCC2)[N+](=O)[O-])n2nnc3ccccc32)cc1	42.5				34.2	41.9	30.8	38.6	4.17	> 100
C=CCN(C(=O)OC(C)(C)C)[C@H](C)C(=O)N[C@@H](C)C(=O)OC	> 100	> 100	> 100		> 100	> 100	> 100		> 100	
Cc1c2c(c(O)c3c(O)cccc13)C(=O)C1(O)C(O)=C(C(=O)NCNc3ccc(C(N)=O)cn3)C(=O)C(N(C)C)C1C2 (stereo not drawn)	> 100		5.85	20.1	14.6	> 100	18.5	> 100		49.2
Cc1ccc(O)c(C2=CC(c3cccc(Cl)c3)SC(N)=N2)c1 (stereo not drawn)	39.8	47.9	23.6	63.6		34.7	34.4	46.8	69.1	51.7
COC1CN(C)C(=Nc2cccc3ccccc23)S1 (stereo not drawn)	> 10	> 10	> 10		> 10	> 10	> 10	> 10		> 10
OC(c1ccc(C(F)(F)F)cc1)C(F)(F)c1nc2ccccc2o1 (stereo not drawn)	> 100	> 100	> 100	> 100	> 100		> 100	> 100	> 100	> 100
COC(O)C(=O)c1ccc2c(c1)CC1(C2)Cc2cc3c(cc2C1=O)CCC3 (stereo not drawn)	47.2	60.7	30.4		29.6	29.6	35.5	39.7	30.5	36.2
O=C1c2ccccc2-c2nnc3c(c21)-c1ccccc1C3	> 100	> 100		> 100		> 100	> 100	> 100	> 100	
CC(=O)OCC1OC(n2c(-c3ccccc3)c(C(C)=O)c(-c3cccc4ccccc34)c(C#N)c2=S)C(OC(C)=O)C(OC(C)=O)C1OC(C)=O (stereo not drawn)	> 100		> 100	> 100	> 100	> 100	> 100	> 100	0.0252	> 100
Cc1ccc(S(=O)(=O)Oc2nc3ccccc3nc2OS(=O)(=O)c2ccc(C)cc2)cc1	> 100	> 100		> 100	> 100	> 100	> 100	> 100	> 100	> 100
